Test results as given in ChEMBL document CHEMBL1201862, “PubChem BioAssay data set” (2004).
Activity calls are given as the source filed them.

Key:
[1] = Luminescence-based counterscreen assay for KLF5 inhibitors: dose response cell-based high throughput screening assay to identify cytotoxic compounds using the IEC-6 intestinal epithelial cell line. [Related pubchem assays: 1700 (Primary screen.), 1834 (Confirmation screen.), 1858 (Summary AID.), 1905 (Counterscreen.)]; assay type: functional
[2] = HepG2 cell cytotoxicity, dose response, cytotoxicity control, plate reader, cherry-pick, antagonist series (AID 743416); assay type: functional, cell-based
[3] = LGR2 antagonists, dose response, cell-based, HEK293, CRE-luciferase reporter, cherry pick, set 2 (AID 743343); assay type: functional;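 note: transfected cells were stimulated with diluted bursicon conditioned medium after compound addition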
[4] = MC4R antagonists, dose response, counter-screen for LGR2 antagonist project, cell-based, plate reader, cherry pick (AID 743444); assay type: functional;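 note: transfected HEK 293 cells stimulated with alpha-MSH peptide; potency of inhibitors of the alpha-MSH evoked signal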
[5] = HEK293 cell cytotoxicity, dose response, cytotoxicity control, plate reader, cherry-picked samples (AID 743446); assay type: functional, cell-based
[6] = A549 cell cytotoxicity, dose response, cytotoxicity control, plate reader, cherry-pick, antagonist series (AID 743412); assay type: functional, cell-based
[7] = inhibitors of SNCA 5'UTR-driven reporter translation, confirmation, H4 neuroglioma cells, luminescence (AID 1988); assay type: functional, cell-based
[8] = cytotoxicity in HPDE-C7 cells, cell-based, fluorescence, HTS (AID 430); assay type: functional; conditions: Homo sapiens
INS1 = experiment: beta cell apoptosis inhibitors, cytokine rescue, dose response, luminescence, retest (AID 449756); assay type: functional, cell-based; conditions: Rattus norvegicus;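 note: cell death triggered by IL-1 beta plus TNF-alpha plus IFN-gamma mixture; protective hits raise ATP signal compared with cytokine alone wells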
[9] = AlphaScreen signal interference compounds, dose response, artefact control for ARNT-TACC3 interaction inhibitor project, biochemical, luminescence, cherry-pick (AID 651705); assay type: functional;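 note: AlphaScreen bead proximity signal that flags compounds interfering with the detection technology; potency reflects signal decrease which marks the compound as an assay artifact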
[10] = target: Scavenger receptor class B member 1 (Mus musculus, UniProt Q61009); experiment: inhibitors of SR-BI mediated HDL lipid uptake, dose response, ldlA[mSR-BI] cells, fluorescence, cherry pick (AID 493194); assay type: functional, cell-based;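 note: cellular uptake of fluorescent DiI-labeled HDL measured as cell fluorescence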
[11] = cytotoxicity in KRAS-transformed pancreatic duct cells, primary screen, cell-based, fluorescence, HTS (AID 431); assay type: functional; conditions: Homo sapiens;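 note: cell line used: HPDE-C7K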
cells [12] = assay type: functional, cell-based
Nonstructural protein 1 = Nonstructural protein 1 (Influenza A virus, UniProt Q194T2); assay type: functional, Influenza A virus (A/California/07/2009(H1N1))
cells [13] = assay type: functional, cell-based; remark: listed apart in the source
[14] = enhancers of respiration in Yfh1-depleted yeast, dose response, Friedreich's ataxia, plus single-dose screen (AID 1465); assay type: functional;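 note: yeast depleted of Yfh1p frataxin homolog grown on glycerol needing respiration; WST-1 tetrazolium dye reduction as measure of cellular dehydrogenase metabolic activity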
[15] = Luminescence Cell-Based Dose Response HTS to Identify Inhibitors of 5'UTR Stem-Loop Driven Prion Protein mRNA Translation in H4 Neuroglioblastoma Cells. [Related pubchem assays: 1827 (Project Summary), 1813 (Primary HTS)]; assay type: functional
[16] = inhibitors of firefly luciferase expression or activity, dose response, H4 neuroglioma cells, luminescence (AID 1990); assay type: functional, cell-based
[17] = target: Acyl-homoserine lactone acylase PvdQ (Pseudomonas aeruginosa (strain LESB58), UniProt Q9I194); experiment: P. aeruginosa PvdQ acylase inhibitors, dose response, biochemical, fluorescence, plate reader and imaging, cherry-picks (AID 493231)
[18] = target: Mothers against decapentaplegic homolog 3 (Homo sapiens, UniProt P84022); experiment: Smad3 binding inhibitors, lysate ELISA, dose response, cell lysate, secondary confirmation, chemiluminescent ELISA, HEK293 lysate (AID 1058); assay type: functional
BJ [19] = experiment: cytotoxicity toward BJ-TERT fibroblasts, dose response, cell-based, RAS-independent, luminescence (AID 1933); assay type: functional; conditions: Homo sapiens
Wee1-like protein kinase = Wee1-like protein kinase (Homo sapiens, UniProt P30291); experiment: Dose Response Cell-based Assay for Inhibitors of Wee1 Degradation. [Related pubchem assays: 1410, 1321 ]; assay type: functional
[20] = cytotoxicity toward DRD oncogenic fibroblasts, dose response, cell-based, non-viral oncogenic, luminescence (AID 1934); assay type: functional; conditions: Homo sapiens
[21] = Luminescence Cell-Based Dose Retest to Confirm Inhibitors of Cancer Stem Cells. [Related pubchem assays (depositor defined):AID2717, AID2721]; assay type: functional; conditions: Homo sapiens
BJ [22] = experiment: cytotoxicity toward BJ-TERT-LT-ST fibroblasts, dose response, cell-based, RAS-independent, luminescence (AID 1935); assay type: functional; conditions: Homo sapiens;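 note: BJ fibroblasts immortalized with TERT plus LT and ST oncogenes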
BJ [23] = experiment: cells; assay type: functional, cell-based; conditions: Homo sapiens
[24] = target: G2/mitotic-specific cyclin-B1 (Homo sapiens, UniProt P14635); experiment: Counterscreen assay for inhibitors of Wee1 degradation: dose response cell-based assay to identify inhibitors of cyclin B degradation. [Related pubchem assays: 1410, 1321 ]; assay type: functional
Mucolipin-3 = Mucolipin-3 (Homo sapiens, UniProt Q8TDD5); experiment: Dose response cell-based high-throughput screening assay for agonists of the transient receptor potential channel ML3 (TRPML3). [Related pubchem assays: 1526, 1424, 1448 ]; assay type: functional
[25] = target: T1, Corticotropin-releasing factor receptor 2/Corticotropin-releasing factor-binding protein (Homo sapiens, UniProt P24387+Q13324); experiment: activators of CRF receptor 2 with binding protein – uHTS hits, confirmation (AID 602473); assay type: functional; conditions: read-out: EC50_Mean
T1 sequence (Q13324 whole entry): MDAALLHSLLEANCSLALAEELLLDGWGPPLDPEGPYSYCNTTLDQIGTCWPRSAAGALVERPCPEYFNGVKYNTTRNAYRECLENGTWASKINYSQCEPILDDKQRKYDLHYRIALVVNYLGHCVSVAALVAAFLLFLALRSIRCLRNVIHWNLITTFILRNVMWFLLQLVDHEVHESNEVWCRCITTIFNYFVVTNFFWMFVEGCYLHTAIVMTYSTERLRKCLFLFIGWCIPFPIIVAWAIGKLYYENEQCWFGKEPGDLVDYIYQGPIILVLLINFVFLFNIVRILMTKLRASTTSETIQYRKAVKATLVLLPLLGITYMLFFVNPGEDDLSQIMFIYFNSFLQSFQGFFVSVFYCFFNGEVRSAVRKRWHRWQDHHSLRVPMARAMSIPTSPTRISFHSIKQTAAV
T1 sequence (P24387 whole entry): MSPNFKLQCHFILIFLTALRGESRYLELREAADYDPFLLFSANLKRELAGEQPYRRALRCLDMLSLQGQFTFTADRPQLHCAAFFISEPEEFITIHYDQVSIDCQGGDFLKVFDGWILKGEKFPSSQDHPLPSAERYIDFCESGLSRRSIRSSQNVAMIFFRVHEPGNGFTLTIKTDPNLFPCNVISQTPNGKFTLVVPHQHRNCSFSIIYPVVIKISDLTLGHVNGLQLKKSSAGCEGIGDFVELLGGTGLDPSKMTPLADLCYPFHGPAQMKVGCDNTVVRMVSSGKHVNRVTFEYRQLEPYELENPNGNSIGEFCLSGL

Ion channel NompC [26] = target: T2, Ion channel NompC (Danio rerio, UniProt Q7T1G6); experiment: Fluorescence counterscreen assay for TRPML3 agonists: dose response cell-based high-throughput screening assay to identify agonists of the transient receptor potential channel N1 (TRPN1). [Related pubchem assays: 1526, 1424, 1448 ]; assay type: functional
Ion channel NompC [27] = target: T2, Ion channel NompC; experiment: TRPML3 and TRPML2 channel agonists, cell-based, patch clamp, Fura-2 profiling panel, panel member TRPN1 Dose Response (AID 2116)
Beta-galactosidase = Beta-galactosidase (Escherichia coli, UniProt Q8VNN2); experiment: beta-galactosidase enzyme inhibitors and activators, dose response, artefact control for CCR6 antagonist project, biochemical, E. coli enzyme, set 3 (AID 504712); assay type: functional
[28] = target: T3, Short transient receptor potential channel 4 (Mus musculus, UniProt Q9QUQ5); experiment: mouse TRPC4 channel activators, dose response, cell-based, HEK293 TRPC4/mu-opioid, Fluo-4 calcium (AID 434937); assay type: functional
T3 sequence (Q9QUQ5 whole entry): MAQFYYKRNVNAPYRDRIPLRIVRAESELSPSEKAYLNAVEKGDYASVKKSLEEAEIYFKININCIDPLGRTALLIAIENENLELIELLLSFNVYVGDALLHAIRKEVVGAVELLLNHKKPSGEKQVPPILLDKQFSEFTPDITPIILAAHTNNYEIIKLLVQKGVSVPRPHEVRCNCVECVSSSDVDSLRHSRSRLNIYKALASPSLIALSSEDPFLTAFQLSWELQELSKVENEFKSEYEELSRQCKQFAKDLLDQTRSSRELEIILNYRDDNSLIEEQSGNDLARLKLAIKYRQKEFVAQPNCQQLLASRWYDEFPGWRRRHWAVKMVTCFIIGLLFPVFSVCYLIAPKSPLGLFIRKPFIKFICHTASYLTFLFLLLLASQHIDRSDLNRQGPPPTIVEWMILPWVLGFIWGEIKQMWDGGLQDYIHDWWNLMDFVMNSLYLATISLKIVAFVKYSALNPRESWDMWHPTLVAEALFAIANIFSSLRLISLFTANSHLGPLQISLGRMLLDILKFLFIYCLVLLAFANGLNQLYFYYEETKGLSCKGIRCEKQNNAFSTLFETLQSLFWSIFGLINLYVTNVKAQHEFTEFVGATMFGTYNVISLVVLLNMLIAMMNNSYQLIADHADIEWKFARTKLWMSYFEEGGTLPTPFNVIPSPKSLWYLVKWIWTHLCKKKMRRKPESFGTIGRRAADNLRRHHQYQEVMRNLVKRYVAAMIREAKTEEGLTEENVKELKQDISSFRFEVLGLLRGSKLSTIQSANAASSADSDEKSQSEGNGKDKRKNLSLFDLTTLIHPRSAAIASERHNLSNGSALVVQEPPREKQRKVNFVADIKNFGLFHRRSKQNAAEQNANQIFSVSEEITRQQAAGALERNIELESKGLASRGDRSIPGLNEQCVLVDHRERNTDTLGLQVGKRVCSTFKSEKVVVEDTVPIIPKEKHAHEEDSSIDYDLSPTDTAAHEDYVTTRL

[29] = target: C-C chemokine receptor type 6 (Homo sapiens, UniProt P51684); experiment: CCR6 receptor antagonists, dose response, cell-based, luminescent beta-arrestin readout (AID 504728); assay type: functional
Chain of C-C chemokine receptor type 6 (P51684 whole entry): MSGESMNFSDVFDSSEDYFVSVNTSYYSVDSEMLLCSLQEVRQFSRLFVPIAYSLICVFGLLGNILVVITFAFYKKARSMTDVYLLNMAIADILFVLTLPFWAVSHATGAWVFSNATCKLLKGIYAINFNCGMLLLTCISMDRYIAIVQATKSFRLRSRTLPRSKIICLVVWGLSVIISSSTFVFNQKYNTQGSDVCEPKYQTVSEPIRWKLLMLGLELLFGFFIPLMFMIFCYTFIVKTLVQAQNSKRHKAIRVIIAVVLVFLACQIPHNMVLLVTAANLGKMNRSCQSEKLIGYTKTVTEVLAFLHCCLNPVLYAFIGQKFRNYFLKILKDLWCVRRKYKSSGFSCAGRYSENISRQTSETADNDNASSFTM

T2 sequence (Q7T1G6 whole entry): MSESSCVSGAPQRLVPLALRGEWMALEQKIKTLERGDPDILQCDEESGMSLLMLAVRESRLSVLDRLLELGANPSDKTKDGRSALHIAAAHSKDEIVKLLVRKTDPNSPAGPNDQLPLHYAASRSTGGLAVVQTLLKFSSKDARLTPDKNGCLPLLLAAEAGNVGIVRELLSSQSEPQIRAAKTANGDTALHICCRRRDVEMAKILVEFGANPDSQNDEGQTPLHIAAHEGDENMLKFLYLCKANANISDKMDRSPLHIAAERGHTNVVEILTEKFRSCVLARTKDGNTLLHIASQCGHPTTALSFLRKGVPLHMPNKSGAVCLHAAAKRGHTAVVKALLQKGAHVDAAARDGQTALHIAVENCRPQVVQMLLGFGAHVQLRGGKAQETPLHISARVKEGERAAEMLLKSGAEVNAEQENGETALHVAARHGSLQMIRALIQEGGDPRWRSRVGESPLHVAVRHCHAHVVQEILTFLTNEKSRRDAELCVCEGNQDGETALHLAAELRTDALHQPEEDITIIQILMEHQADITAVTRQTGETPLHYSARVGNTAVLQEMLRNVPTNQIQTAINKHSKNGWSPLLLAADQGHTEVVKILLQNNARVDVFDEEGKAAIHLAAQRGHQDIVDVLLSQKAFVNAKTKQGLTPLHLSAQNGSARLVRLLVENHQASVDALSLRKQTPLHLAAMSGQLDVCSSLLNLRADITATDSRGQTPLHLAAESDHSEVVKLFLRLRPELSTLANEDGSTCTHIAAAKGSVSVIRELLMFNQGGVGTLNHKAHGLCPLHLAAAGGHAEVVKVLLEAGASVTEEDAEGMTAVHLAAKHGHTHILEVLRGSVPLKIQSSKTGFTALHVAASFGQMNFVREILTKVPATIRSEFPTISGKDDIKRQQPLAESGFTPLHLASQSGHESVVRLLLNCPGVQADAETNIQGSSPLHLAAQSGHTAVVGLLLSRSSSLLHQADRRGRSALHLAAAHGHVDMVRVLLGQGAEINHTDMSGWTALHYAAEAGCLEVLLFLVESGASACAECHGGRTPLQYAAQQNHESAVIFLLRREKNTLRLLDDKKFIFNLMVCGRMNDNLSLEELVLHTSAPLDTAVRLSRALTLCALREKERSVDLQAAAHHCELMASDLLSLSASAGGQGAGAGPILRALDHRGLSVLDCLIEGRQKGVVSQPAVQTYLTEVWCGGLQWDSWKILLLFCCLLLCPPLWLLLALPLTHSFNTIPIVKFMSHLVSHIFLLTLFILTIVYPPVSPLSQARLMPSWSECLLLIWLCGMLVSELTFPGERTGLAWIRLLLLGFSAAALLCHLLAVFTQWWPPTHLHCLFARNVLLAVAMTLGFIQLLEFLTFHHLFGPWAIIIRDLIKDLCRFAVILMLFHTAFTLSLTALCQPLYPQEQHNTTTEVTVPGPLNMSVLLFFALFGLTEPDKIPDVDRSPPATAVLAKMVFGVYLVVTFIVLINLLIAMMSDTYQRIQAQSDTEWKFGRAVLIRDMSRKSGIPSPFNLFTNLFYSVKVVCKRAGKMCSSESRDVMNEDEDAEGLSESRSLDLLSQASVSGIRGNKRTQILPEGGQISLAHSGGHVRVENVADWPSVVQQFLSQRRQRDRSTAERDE
Chain of Nonstructural protein 1 (Q194T2 whole entry): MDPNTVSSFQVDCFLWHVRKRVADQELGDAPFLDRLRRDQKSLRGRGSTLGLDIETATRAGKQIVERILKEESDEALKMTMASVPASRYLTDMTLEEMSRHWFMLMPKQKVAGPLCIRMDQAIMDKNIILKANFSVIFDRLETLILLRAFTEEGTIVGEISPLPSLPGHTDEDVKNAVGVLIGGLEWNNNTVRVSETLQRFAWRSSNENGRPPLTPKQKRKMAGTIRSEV
Chain of Mucolipin-3 (Q8TDD5 whole entry): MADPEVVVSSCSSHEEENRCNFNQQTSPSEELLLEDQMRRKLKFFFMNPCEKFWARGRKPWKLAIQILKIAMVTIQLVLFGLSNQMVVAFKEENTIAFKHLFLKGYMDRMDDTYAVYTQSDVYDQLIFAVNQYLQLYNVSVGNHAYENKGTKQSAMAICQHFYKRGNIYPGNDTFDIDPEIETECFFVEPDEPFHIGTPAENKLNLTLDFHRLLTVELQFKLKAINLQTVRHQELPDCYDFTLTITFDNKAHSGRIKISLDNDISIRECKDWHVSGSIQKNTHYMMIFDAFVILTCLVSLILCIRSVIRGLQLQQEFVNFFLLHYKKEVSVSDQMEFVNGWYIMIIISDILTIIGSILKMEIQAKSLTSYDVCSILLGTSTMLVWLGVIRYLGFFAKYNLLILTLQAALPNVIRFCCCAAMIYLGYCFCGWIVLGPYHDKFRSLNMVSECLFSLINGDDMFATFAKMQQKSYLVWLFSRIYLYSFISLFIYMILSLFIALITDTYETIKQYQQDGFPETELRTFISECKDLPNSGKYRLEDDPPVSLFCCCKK
Chain of Mothers against decapentaplegic homolog 3 (P84022 whole entry): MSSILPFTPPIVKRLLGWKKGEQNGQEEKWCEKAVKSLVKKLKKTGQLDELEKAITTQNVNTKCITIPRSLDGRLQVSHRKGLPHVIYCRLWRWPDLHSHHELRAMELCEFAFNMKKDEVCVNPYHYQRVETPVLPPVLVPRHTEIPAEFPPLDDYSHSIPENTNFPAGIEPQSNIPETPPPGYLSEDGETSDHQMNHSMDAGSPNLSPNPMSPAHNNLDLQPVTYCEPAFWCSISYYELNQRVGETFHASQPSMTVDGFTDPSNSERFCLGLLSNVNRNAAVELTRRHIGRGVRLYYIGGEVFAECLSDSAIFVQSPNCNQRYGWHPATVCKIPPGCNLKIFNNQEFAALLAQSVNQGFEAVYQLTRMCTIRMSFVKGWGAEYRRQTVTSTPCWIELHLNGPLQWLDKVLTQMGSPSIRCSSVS
Chain of Scavenger receptor class B member 1 (Q61009 whole entry): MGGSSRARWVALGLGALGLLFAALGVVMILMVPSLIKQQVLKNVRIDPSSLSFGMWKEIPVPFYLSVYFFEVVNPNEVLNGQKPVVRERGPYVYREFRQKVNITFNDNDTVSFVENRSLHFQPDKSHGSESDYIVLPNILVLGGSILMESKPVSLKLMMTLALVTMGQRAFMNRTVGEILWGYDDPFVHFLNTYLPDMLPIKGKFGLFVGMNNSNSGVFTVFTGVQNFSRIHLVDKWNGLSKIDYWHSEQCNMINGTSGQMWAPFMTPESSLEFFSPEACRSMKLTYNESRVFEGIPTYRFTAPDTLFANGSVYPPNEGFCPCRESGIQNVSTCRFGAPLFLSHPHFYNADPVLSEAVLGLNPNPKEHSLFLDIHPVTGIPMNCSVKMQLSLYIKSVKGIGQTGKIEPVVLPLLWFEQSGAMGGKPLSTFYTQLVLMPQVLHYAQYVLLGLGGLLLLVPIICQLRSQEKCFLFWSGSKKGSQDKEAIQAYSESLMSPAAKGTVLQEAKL
Chain of Wee1-like protein kinase (P30291 whole entry): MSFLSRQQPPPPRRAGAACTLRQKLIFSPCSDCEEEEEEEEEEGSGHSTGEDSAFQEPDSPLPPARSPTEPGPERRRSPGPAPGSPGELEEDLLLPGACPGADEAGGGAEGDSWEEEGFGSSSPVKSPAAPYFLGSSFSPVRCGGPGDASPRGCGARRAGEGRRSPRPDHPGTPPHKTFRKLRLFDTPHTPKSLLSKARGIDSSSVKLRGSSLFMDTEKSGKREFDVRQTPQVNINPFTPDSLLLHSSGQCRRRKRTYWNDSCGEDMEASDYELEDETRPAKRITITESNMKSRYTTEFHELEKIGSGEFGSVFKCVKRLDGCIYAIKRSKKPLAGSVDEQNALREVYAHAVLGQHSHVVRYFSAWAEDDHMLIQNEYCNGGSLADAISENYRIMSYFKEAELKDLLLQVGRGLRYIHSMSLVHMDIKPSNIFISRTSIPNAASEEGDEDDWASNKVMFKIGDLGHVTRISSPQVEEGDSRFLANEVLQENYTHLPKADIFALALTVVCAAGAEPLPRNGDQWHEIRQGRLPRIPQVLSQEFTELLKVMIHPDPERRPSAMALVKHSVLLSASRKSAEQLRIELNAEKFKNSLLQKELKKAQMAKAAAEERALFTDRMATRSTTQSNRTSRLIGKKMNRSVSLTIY
Chain of G2/mitotic-specific cyclin-B1 (P14635 whole entry): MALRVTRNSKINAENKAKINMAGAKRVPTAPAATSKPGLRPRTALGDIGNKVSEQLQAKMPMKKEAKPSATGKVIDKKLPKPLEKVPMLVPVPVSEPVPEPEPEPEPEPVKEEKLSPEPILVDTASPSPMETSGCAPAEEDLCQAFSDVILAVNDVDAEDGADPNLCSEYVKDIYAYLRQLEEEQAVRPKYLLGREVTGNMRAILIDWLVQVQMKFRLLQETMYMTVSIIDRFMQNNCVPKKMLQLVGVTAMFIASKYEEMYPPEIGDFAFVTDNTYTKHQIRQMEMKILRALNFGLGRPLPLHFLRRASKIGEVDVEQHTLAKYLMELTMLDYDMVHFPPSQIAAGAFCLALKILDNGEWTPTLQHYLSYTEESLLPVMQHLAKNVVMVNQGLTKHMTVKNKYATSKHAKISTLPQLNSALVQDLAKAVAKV

In the case of `Cc1ccc(C(=O)Nc2nc3ccccc3[nH]2)cc1`, the IC50 [1] is reported as > 13.3 µM (not active), the AC50 [2] is reported as > 52 µM (inactive) and the AC50 [3] is reported as 1.29 µM (active). The AC50 [4] was 1.45 µM (active), the AC50 [5] was 29.2 µM (active) and the AC50 [6] was 35.2 µM (active).

For `O=C(Nc1nc(NC(=O)c2ccco2)n(-c2ccccc2)n1)c1ccccc1`, the EC50 [7] was 7.85 µM (active), the EC50 [8] was 3.73 µM (active) and the AC50 (INS1) was 2.96 µM (active). For the same compound, the AC50 [9] was 127 µM (active), the AC50 [10] was 13.4 µM (active) and the EC50 [11] was 6.1 µM (active). For the same compound, the EC50 (cells [12]) was > 350 µM (not active), the IC50 (Nonstructural protein 1) was 85.9 µM (active) and the EC50 (cells [13]) was > 350 µM (not active). For the same compound, the EC50 [14] was > 100 µM (active), the EC50 [15] was 5.2 µM (active) and the EC50 [16] was 10 µM (active).

For `N#CC(OC(=O)c1ccccc1)c1cccc([N+](=O)[O-])c1` (centres undefined), the AC50 [17] was 7.45 µM (active).

For `COc1cccc(C(c2cc3c(cc2O)OCO3)N2CCN(C(c3cc4c(cc3O)OCO4)c3cccc(OC)c3O)CC2)c1O` (centres undefined), the IC50 [18] was > 40 µM (not active).

In the case of `Cc1ccc(/C=N/NC(=O)c2ccc3c(c2)OCCO3)s1`, the EC50 (BJ [19]) is reported as 12.4 µM (active), the EC50 (Wee1-like protein kinase) is reported as > 49.7 µM (not active) and the EC50 [20] is reported as 17.9 µM (active). For the same compound, the AC50 [21] was 1.48 µM (active), the EC50 (BJ [22]) was > 150 µM (inconclusive) and the EC50 (BJ [23]) was 140 µM (active). For the same compound, the EC50 [24] was > 49.7 µM (not active).

In the case of `O=S(=O)(NC1CCCCC1N1CCOCC1)c1ccc(Cl)cc1` (centres undefined), the EC50 (Mucolipin-3) is reported as 0.823 µM (active), the EC50 [25] is reported as 13.7 µM (active) and the EC50 (Ion channel NompC [26]) is reported as > 29.9 µM (not active). The EC50 (Ion channel NompC [27]) was 14 µM (inactive).

In the case of `CN(C)C(CNc1ccc(C(F)(F)F)cn1)c1ccccc1` (centres undefined), the IC50 (Beta-galactosidase) is reported as > 66.6 µM (inactive), the EC50 [28] is reported as 2.11 µM (active) and the IC50 [29] is reported as > 66.6 µM (inactive).
